Source: ChEMBL document CHEMBL5678816, “A Next-Generation TRK Kinase Inhibitor Overcomes Acquired Resistance to Prior TRK Kinase Inhibition in Patients with TRK Fusion-Positive Solid Tumors” (Cancer Discov, 2017)
Activity calls are given as the source filed them. No cut-off for these calls is given here.

What was measured:
[1] = molecular target: Tyrosine-protein kinase ABL2 (Homo sapiens) (UniProt P42684); test: Inhibition of Abl2 (unknown origin) at 1 uM in presence of ATP relative to control; values are per cent of control
BT-474 = test: Inhibition of cell proliferation in human BT-474 cells upto 10 umol/L incubated for 72 hrs by DAPI staining based analysis; type: functional; settings: dose <= 10.0 µmol/L
[2] = molecular target: Angiopoietin-1 receptor (Homo sapiens) (UniProt Q02763); test: Inhibition of Tie2 (unknown origin) at 1 uM in presence of ATP relative to control; values are per cent of control
[3] = molecular target: Mitogen-activated protein kinase 12 (Homo sapiens) (UniProt P53778); test: Inhibition of p38gamma (unknown origin) at 1 uM in presence of ATP relative to control; values are per cent of control
Chain of Mitogen-activated protein kinase 12 (Homo sapiens) (P53778 whole entry): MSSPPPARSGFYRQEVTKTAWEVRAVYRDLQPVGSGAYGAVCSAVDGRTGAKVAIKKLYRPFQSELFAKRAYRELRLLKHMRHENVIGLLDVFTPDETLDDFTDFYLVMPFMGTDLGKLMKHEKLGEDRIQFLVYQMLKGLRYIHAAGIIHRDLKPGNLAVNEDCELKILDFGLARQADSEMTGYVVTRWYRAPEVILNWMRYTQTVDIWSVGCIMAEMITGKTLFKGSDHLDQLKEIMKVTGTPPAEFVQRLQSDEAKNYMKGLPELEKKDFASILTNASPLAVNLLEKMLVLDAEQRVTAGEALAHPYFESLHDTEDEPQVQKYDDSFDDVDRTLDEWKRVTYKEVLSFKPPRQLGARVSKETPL

[4] = molecular target: cAMP-dependent protein kinase catalytic subunit PRKX (Homo sapiens) (UniProt P51817); test: Inhibition of PrKX (unknown origin) at 1 uM in presence of ATP relative to control; values are per cent of control
[5] = AUC in adult patient with recurrent LMNA-NTRK1 rearranged colorectal cancer at 50 mg administered twice a day as powder-in-capsule or liquid formulation for 1 day by LC-MS/MS analysis; type: ADME; settings: human, in vivo, po
[6] = molecular target: Insulin receptor-related protein (Homo sapiens) (UniProt P14616); test: Inhibition of IRR (unknown origin) at 1 uM in presence of ATP relative to control; values are per cent of control
[7] = molecular target: Glycogen synthase kinase-3 beta (Homo sapiens) (UniProt P49841); test: Inhibition of GSK3beta (unknown origin) at 1 uM in presence of ATP relative to control; values are per cent of control
[8] = Inhibition of cell proliferation in MPRIP-NTRK1 fusion positive human CUTO-3 cells incubated for 72 hrs by DAPI staining based analysis; type: functional; settings: CUTO-3, 72 h
TPC1 = test: Inhibition of cell proliferation in human TPC1 cells upto 10 umol/L incubated for 72 hrs by DAPI staining based analysis; type: functional; settings: dose <= 10.0 µmol/L
[9] = molecular target: Protein-tyrosine kinase 6 (Homo sapiens) (UniProt Q13882); test: Inhibition of PTK6 (unknown origin) at 1 uM in presence of ATP relative to control; values are per cent of control
Chain of Protein-tyrosine kinase 6 (Homo sapiens) (Q13882 whole entry, looked up, the tested form may be a part): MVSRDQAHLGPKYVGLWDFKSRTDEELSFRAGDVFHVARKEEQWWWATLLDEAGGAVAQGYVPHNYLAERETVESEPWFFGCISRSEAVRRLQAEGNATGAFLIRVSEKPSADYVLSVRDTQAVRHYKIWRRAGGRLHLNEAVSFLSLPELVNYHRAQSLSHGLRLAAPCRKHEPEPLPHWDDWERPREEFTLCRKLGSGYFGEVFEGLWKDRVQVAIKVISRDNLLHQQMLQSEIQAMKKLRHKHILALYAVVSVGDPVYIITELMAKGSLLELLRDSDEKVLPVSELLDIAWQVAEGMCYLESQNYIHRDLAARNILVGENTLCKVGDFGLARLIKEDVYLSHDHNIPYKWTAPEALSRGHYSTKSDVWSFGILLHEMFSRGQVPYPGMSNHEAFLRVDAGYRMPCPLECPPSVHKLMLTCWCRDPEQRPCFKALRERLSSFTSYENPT

KM12 = test: Inhibition of cell proliferation in TPM3-NTRK1 fusion positive human KM12 cells incubated for 72 hrs by DAPI staining based analysis; type: functional; settings: KM12, 72 h
C32 = test: Inhibition of cell proliferation in human C32 cells upto 10 umol/L incubated for 72 hrs by DAPI staining based analysis; type: functional; settings: dose <= 10.0 µmol/L
[10] = molecular target: Serine/threonine-protein kinase Nek11 (Homo sapiens) (UniProt Q8NG66); test: Inhibition of NEK11 (unknown origin) at 1 uM in presence of ATP relative to control; values are per cent of control
Chain of Serine/threonine-protein kinase Nek11 (Homo sapiens) (Q8NG66 whole entry): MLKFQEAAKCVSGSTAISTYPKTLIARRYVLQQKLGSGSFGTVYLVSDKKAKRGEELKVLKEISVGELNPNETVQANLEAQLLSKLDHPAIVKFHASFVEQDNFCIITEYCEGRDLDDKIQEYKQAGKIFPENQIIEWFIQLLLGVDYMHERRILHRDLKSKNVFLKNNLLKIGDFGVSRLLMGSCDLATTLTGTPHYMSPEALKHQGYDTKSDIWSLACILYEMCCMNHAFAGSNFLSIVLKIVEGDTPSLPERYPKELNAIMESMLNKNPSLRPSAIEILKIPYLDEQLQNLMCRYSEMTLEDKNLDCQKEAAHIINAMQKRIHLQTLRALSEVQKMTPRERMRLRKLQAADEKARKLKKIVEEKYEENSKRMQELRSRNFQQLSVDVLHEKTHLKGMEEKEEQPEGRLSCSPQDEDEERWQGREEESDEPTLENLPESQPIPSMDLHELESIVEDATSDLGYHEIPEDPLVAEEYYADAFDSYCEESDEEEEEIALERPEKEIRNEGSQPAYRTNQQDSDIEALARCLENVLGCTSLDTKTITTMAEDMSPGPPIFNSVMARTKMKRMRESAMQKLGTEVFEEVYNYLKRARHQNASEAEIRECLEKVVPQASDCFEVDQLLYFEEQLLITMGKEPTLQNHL

[11] = molecular target: Receptor tyrosine-protein kinase erbB-4 (Homo sapiens) (UniProt Q15303); test: Inhibition of ErbB4 (unknown origin) at 1 uM in presence of ATP relative to control; values are per cent of control
Chain of Receptor tyrosine-protein kinase erbB-4 (Homo sapiens) (Q15303 whole entry): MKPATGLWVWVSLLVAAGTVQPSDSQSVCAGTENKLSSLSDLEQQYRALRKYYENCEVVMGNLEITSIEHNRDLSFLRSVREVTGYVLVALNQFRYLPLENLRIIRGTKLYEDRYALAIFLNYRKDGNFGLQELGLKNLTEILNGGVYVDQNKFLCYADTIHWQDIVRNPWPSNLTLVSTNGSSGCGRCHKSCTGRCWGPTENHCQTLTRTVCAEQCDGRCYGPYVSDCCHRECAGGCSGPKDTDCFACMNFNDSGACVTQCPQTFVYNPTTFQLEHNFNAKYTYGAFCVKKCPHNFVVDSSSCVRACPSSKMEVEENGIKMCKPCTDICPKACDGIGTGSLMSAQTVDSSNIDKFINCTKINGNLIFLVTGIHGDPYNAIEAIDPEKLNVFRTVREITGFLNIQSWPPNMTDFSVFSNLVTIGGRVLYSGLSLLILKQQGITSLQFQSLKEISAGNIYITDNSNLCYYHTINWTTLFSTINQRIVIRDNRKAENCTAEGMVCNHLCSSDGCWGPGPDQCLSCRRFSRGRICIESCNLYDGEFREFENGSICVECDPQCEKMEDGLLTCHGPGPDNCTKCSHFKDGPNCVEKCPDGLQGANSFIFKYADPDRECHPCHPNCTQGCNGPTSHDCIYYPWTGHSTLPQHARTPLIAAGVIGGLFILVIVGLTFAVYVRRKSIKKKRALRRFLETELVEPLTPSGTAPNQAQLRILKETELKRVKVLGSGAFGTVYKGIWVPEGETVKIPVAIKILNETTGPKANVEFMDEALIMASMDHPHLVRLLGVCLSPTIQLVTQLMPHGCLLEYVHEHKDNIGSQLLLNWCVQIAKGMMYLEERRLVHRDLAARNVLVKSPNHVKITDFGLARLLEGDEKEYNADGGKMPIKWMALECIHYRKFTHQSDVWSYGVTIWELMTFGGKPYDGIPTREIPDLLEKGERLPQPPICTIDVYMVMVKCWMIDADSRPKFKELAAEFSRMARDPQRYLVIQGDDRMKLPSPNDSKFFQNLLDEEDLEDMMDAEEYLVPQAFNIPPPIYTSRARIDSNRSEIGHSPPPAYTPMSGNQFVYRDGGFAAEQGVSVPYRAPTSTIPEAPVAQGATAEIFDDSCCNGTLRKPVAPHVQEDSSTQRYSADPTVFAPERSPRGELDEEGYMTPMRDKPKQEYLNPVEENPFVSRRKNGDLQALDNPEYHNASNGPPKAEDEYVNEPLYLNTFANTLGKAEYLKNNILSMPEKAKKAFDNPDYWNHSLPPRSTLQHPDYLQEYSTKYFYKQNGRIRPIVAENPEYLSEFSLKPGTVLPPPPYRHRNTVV

[12] = molecular target: Homeodomain-interacting protein kinase 3 (Homo sapiens) (UniProt Q9H422); test: Inhibition of HIPK3 (unknown origin) at 1 uM in presence of ATP relative to control; values are per cent of control
[13] = molecular target: Cyclin-dependent kinase 1/cyclin B1 (Homo sapiens) (UniProt P06493+P14635); test: Inhibition of CDK1/cyclinB (unknown origin) at 1 uM in presence of ATP relative to control; values are per cent of control
Chain of Cyclin-dependent kinase 1/cyclin B1 (Homo sapiens) (P06493 whole entry, looked up): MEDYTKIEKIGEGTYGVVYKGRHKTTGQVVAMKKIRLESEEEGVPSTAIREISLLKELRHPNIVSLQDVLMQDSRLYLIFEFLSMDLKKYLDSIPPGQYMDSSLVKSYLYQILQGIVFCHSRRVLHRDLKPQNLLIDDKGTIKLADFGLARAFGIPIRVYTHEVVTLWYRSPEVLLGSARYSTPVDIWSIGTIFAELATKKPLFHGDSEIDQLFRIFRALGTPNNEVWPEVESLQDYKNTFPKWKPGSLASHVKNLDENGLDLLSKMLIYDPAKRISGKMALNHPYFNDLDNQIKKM
Chain of Cyclin-dependent kinase 1/cyclin B1 (Homo sapiens) (P14635 whole entry, looked up): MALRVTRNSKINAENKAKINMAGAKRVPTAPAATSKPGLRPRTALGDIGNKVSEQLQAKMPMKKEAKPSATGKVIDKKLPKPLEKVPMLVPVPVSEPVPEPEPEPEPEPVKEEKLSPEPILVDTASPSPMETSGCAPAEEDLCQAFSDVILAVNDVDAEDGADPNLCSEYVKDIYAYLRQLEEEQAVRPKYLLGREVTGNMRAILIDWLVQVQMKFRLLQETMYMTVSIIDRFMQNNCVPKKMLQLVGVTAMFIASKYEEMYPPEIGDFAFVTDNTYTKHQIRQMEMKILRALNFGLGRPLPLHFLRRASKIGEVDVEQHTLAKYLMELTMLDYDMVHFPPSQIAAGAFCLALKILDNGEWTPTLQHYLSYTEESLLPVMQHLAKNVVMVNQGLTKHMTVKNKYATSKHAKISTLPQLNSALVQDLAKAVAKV

[14] = molecular target: Ephrin type-A receptor 2 (Homo sapiens) (UniProt P29317); test: Inhibition of EphA2 (unknown origin) at 1 uM in presence of ATP relative to control; values are per cent of control
[15] = molecular target: Serine/threonine-protein kinase TBK1 (Homo sapiens) (UniProt Q9UHD2); test: Inhibition of TBK1 (unknown origin) at 1 uM in presence of ATP relative to control; values are per cent of control
[16] = molecular target: Serine/threonine-protein kinase 17A (Homo sapiens) (UniProt Q9UEE5); test: Inhibition of DRAK1 (unknown origin) at 1 uM in presence of ATP relative to control; values are per cent of control
Chain of Serine/threonine-protein kinase 17A (Homo sapiens) (Q9UEE5 whole entry): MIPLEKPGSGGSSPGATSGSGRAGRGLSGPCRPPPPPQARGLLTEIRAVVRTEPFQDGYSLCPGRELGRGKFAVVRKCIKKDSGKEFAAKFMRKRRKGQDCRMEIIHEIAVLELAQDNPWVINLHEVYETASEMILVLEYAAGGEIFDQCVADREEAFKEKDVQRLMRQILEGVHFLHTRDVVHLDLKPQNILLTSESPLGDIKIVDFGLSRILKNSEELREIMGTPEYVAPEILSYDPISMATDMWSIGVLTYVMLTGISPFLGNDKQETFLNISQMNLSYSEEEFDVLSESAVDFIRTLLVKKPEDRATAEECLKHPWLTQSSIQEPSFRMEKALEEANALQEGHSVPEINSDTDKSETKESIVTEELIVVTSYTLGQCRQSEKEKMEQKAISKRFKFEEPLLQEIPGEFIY

MV4-11 = test: Inhibition of cell proliferation in human MV4-11 cells upto 10 umol/L incubated for 72 hrs by DAPI staining based analysis; type: functional; settings: dose <= 10.0 µmol/L
[17] = molecular target: Casein kinase I isoform delta (Homo sapiens) (UniProt P48730); test: Inhibition of CK1delta (unknown origin) at 1 uM in presence of ATP relative to control; values are per cent of control
[18] = molecular target: G protein-coupled receptor kinase 6 (Homo sapiens) (UniProt P43250); test: Inhibition of GRK6 (unknown origin) at 1 uM in presence of ATP relative to control; values are per cent of control
Chain of G protein-coupled receptor kinase 6 (Homo sapiens) (P43250 whole entry, looked up): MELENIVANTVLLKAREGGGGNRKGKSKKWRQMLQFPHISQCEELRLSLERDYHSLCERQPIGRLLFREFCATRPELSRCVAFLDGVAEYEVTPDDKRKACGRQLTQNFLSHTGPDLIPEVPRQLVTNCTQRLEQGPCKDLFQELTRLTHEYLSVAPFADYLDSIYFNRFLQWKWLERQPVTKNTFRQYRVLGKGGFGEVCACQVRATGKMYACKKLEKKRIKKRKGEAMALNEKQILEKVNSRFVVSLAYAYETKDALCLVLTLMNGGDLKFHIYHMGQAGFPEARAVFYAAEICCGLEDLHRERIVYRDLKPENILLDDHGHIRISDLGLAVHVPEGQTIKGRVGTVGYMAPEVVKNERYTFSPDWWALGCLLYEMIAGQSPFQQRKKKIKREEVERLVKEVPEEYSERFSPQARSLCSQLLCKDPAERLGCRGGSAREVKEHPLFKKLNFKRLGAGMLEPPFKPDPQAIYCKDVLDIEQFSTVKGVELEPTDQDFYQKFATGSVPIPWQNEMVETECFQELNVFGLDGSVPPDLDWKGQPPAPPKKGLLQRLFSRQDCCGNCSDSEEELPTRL

[19] = molecular target: Vascular endothelial growth factor receptor 3 (Homo sapiens) (UniProt P35916); test: Inhibition of FLt4 (unknown origin) at 1 uM in presence of ATP relative to control; values are per cent of control
DU-145 = test: Inhibition of cell proliferation in human DU-145 cells upto 10 umol/L incubated for 72 hrs by DAPI staining based analysis; type: functional; settings: dose <= 10.0 µmol/L
[20] = molecular target: Death-associated protein kinase 2 (Homo sapiens) (UniProt Q9UIK4); test: Inhibition of DAPK2 (unknown origin) at 1 uM in presence of ATP relative to control; values are per cent of control
Chain of Death-associated protein kinase 2 (Homo sapiens) (Q9UIK4 whole entry, looked up): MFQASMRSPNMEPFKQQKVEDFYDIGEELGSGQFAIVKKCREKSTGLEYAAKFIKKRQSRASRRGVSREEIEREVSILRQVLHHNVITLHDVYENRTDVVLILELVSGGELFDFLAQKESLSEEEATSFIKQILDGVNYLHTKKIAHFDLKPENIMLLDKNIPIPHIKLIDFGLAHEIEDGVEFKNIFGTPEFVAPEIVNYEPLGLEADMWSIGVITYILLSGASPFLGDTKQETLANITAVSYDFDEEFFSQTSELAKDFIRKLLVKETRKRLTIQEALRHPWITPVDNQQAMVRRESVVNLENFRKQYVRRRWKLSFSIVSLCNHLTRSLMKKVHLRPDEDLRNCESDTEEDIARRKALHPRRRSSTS

[21] = molecular target: SRSF protein kinase 1 (Homo sapiens) (UniProt Q96SB4); test: Inhibition of SRPK1 (unknown origin) at 1 uM in presence of ATP relative to control; values are per cent of control
SHP77 = test: Inhibition of cell proliferation in human SHP77 cells upto 10 umol/L incubated for 72 hrs by DAPI staining based analysis; type: functional; settings: dose <= 10.0 µmol/L
CHL-1 = test: Inhibition of cell proliferation in human CHL-1 cells upto 10 umol/L incubated for 72 hrs by DAPI staining based analysis; type: functional; settings: dose <= 10.0 µmol/L
[22] = molecular target: MAP kinase-interacting serine/threonine-protein kinase 2 (Homo sapiens) (UniProt Q9HBH9); test: Inhibition of MKNK2 (unknown origin) at 1 uM in presence of ATP relative to control; values are per cent of control

## C[C@@H]1CCc2ncc(F)cc2[C@H]2CCCN2c2ccn3ncc(c3n2)C(=O)N1 [SELITRECTINIB]
[1]
  residual activity: 105%
BT-474
  inhibition: inactive
[2]
  residual activity: 119%
[3]
  residual activity: 104%
[4]
  residual activity: 118%
[5]
  AUC at 24 h: 1190 ng·h/mL
[6]
  residual activity: 111%
[7]
  residual activity: 124%
[8]
  IC50: ≤ 5 nM
TPC1
  inhibition: inactive
[9]
  residual activity: 98.5%
KM12
  IC50: ≤ 5 nM
C32
  inhibition: inactive
[10]
  residual activity: 112%
[11]
  residual activity: 116%
[12]
  residual activity: 105%
[13]
  residual activity: 102%
[14]
  residual activity: 79.5%
[15]
  residual activity: 111%
[16]
  residual activity: 113%
MV4-11
  inhibition: inactive
[17]
  residual activity: 110%
[18]
  residual activity: 106%
[19]
  residual activity: 90%
DU-145
  inhibition: inactive
[20]
  residual activity: 94%
[21]
  residual activity: 104%
SHP77
  inhibition: inactive
CHL-1
  inhibition: inactive
[22]
  residual activity: 100%
